{"source": "patent US20100210464A1", "about": "“HERBICIDAL COMPOSITION AND METHOD OF USE THEREOF” (SYNGENTA CROP PROTECTION, INC., priority 2007, published 2010)", "assay_type_in_all_cases": "in vivo", "key": {"[1]": {"test_system": "white clover (Trifolium repens)", "assay": "Glasshouse trial, control of white clover, granules applied post-emergence (Example 4)", "conditions": "pendimethalin granules 1120 g ai/ha + mesotrione granules 200 g ai/ha", "protocol": "200 litres of herbicide/adjuvant system was used per hectare. General weed control was evaluated at 7 and 14 days after treatment (DAT). It is noted that all herbicides were applied at reduced field rates because herbicide effects are magnified in a glasshouse environment. Rates were chosen to give a 50 to 70% level of control with herbicides applied alone as this allows for detection of any synergistic effect when tank mixtures are used. The results were evaluated using the Colby formula. The expected result for (A+B) is (A+B)−(A×B/100) where A and B are the ‘observed’ results for A and B on their own. […] A glasshouse trial was carried out as described in Example 1, except that the herbicides were applied in the form of granules. Mesotrione granules were made by spraying a mesotrione millbase (28% SC formulation) onto a granular carrier, Agsorb LVM-GA 24/48. Pendimethalin granules were made by adding Prowl® 3.3EC (37.4%) and Agsorb LVM-GA 24/48 granules into a tumbler, followed by spraying with a binder, HiSil 233. For testing mixtures of mesotrione and pendimethalin, the appropriate number of granules for each herbicide were weighed and thoroughly mixed. Granules were weighed for each individual pot using an amount equivalent to the rates listed in Table 2, and, based on a pot surface area of 10 cm^2, were carefully hand sprinkled on the emerged plants and pot surface. […]"}, "[2]": {"test_system": "goosegrass (Eleusine indica)", "assay": "Glasshouse trial, control of goosegrass, spray applied pre-emergence (Example 1)", "conditions": "for Actual weed control, Plus Mesotrione at 100 g ai/ha: X-77 0.1% v/v", "protocol": "(§1) In the following tests, herbicides were applied at reduced field rates because herbicide effects are magnified in a glasshouse environment. The rates tested were selected to give between about 50 and 70% control with herbicides applied alone, so that any synergistic effect could be readily detected when testing mixtures. A glasshouse trial was carried out. Goosegrass seeds were sown into standard glasshouse potting mix (1:1 v/v Promix:Vero sand soil) contained in 10 cm square plastic pots. Treatments were replicated three times. Mesotrione (in the form Callisto® 480SE) was applied pre-emergence to goosegrass (Eleusine indica) at 100 g ai/ha with or without pendimethalin (in the form Prowl® H2O). When used, pendimethalin was applied at a rate of 140 g ai/ha or 280 g ai/ha. The adjuvant system was X-77 at 0.1% v/v in deionised water. 200 litres of herbicide/adjuvant system was used per hectare. General weed control was evaluated at 7 and 14 days after treatment (DAT). It is noted that all herbicides were applied at reduced field rates because herbicide effects are magnified in a glasshouse environment. Rates were chosen to give a 50 to 70% level of control with herbicides applied alone as this allows for detection of any synergistic effect when tank mixtures are used. The results were evaluated using the Colby formula. The expected result for (A+B) is (A+B)−(A×B/100) where A and B are the ‘observed’ results for A and B on their own."}, "[3]": {"test_system": "goosegrass (Eleusine indica)", "assay": "Glasshouse trial, control of goosegrass, granules applied pre-emergence (Example 2)", "protocol": "as §1, with “A” for “In the following tests, herbicides were applied at reduced field rates because herbicide effects are magnified in a glasshouse environment. The rates tested were selected to give between about 50 and 70% control with herbicides applied alone, so that any synergistic effect could be readily detected when testing mixtures. A”, “own. […] A glasshouse trial was carried out as described in Example 1, except that the herbicides were applied in the form of granules. Mesotrione granules were made by spraying a mesotrione millbase (28% SC formulation) onto a granular carrier, Agsorb LVM-GA 24/48. Pendimethalin granules were made by adding Prowl® 3.3EC (37.4%) and Agsorb LVM-GA 24/48 granules into a tumbler, followed by spraying with a binder, HiSil 233. For testing mixtures of mesotrione and pendimethalin, the appropriate number of granules for each herbicide were weighed and thoroughly mixed. […]” for “own.”"}, "[4]": {"conditions": "pendimethalin granules 140 g ai/ha + mesotrione granules 100 g ai/ha"}, "[5]": {"conditions": "pendimethalin granules 140 g ai/ha + mesotrione granules 200 g ai/ha"}, "[6]": {"conditions": "pendimethalin granules 280 g ai/ha + mesotrione granules 100 g ai/ha"}, "[7]": {"conditions": "pendimethalin granules 280 g ai/ha + mesotrione granules 200 g ai/ha"}}, "note": "Marks after values point to notes of the source that are not given here."}
{"compound": "CCC(CC)Nc1c([N+](=O)[O-])cc(C)c(C)c1[N+](=O)[O-]", "note": "[Pendimethalin, N-(1-ethylpropyl)-3,4-dimethyl-2,6-dinitrobenzenamine]", "values": [{"measurement": "Actual weed control, Plus Mesotrione at 200 g ai/ha", "setting": "[1]", "result": "93* %"}, {"measurement": "Expected weed control (Colby formula), Plus Mesotrione at 200 g ai/ha", "setting": "[1]", "result": 76, "unit": "%"}, {"measurement": "Expected weed control (Colby formula), Plus Mesotrione at 100 g ai/ha", "setting": "[2]; pendimethalin 140 g ai/ha + mesotrione 100 g ai/ha", "result": 22, "unit": "%"}, {"measurement": "Expected weed control (Colby formula), Plus Mesotrione at 100 g ai/ha", "setting": "[2]; pendimethalin 280 g ai/ha + mesotrione 100 g ai/ha", "result": 22, "unit": "%"}, {"measurement": "Actual weed control, Plus Mesotrione at 100 g ai/ha", "setting": "[2]; pendimethalin (Prowl H2O) 140 g ai/ha + mesotrione (Callisto 480SE) 100 g ai/ha", "result": "35* %"}, {"measurement": "Actual weed control, Plus Mesotrione at 100 g ai/ha", "setting": "[2]; pendimethalin (Prowl H2O) 280 g ai/ha + mesotrione (Callisto 480SE) 100 g ai/ha", "result": "37* %"}, {"measurement": "Actual weed control, Plus Mesotrione at 100 g ai/ha", "setting": "[3]; [4]", "result": "67* %"}, {"measurement": "Expected weed control (Colby formula), Plus Mesotrione at 100 g ai/ha", "setting": "[3]; [4]", "result": 48, "unit": "%"}, {"measurement": "Actual weed control, Plus Mesotrione at 200 g ai/ha", "setting": "[3]; [5]", "result": "95* %"}, {"measurement": "Expected weed control (Colby formula), Plus Mesotrione at 200 g ai/ha", "setting": "[3]; [5]", "result": 80, "unit": "%"}, {"measurement": "Actual weed control, Plus Mesotrione at 100 g ai/ha", "setting": "[3]; [6]", "result": "87* %"}, {"measurement": "Expected weed control (Colby formula), Plus Mesotrione at 100 g ai/ha", "setting": "[3]; [6]", "result": 49, "unit": "%"}, {"measurement": "Actual weed control, Plus Mesotrione at 200 g ai/ha", "setting": "[3]; [7]", "result": "100* %"}, {"measurement": "Expected weed control (Colby formula), Plus Mesotrione at 200 g ai/ha", "setting": "[3]; [7]", "result": 80, "unit": "%"}]}
